Patent publication US20060264410A1, “19,26,27-trinor-1alpha,25-dihydroxyvitamin D3 compounds” (Wisconsin Alumni Research Foundation, priority 2005, published 2006)
Entries after “also recorded” stand apart in the source; their conditions may differ.

What was measured:
vitamin D receptor = biological target: T1, vitamin D receptor (Homo sapiens, UniProt P11473); conditions: from '352, '861 and '622 patents; cited from earlier work
T1 sequence (P11473 1-427): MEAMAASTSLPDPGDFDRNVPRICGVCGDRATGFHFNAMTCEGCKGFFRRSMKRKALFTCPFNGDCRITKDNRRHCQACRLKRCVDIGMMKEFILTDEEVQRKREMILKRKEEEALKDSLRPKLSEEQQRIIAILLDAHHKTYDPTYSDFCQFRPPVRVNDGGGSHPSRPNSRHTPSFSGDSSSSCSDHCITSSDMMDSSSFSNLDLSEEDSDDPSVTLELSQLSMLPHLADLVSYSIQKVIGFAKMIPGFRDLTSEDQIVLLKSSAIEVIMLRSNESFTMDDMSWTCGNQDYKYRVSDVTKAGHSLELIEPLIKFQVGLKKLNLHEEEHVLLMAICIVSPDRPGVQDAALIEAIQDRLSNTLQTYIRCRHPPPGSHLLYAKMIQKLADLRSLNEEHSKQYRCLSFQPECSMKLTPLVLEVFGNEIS

cell differentiation = conditions: prior art; cited from earlier work
[1] = prior art; b9 values compared to 1α,25-dihydroxyvitamin D3; cited from earlier work
[2] = biological target: T2, full-length recombinant rat vitamin D receptor (Rattus norvegicus, UniProt P13053); assay: Vitamin D receptor binding, competition with [3H]-1,25-(OH)2-D3; conditions: FIGS. 1 and 2
T2 construct: Full-length recombinant rat receptor was expressed in E. coli BL21(DE3) Codon Plus RIL cells; histidine tag (C); made in house; host or cells: E. coli BL21(DE3) Codon Plus RIL
T2 sequence (P13053 1-423): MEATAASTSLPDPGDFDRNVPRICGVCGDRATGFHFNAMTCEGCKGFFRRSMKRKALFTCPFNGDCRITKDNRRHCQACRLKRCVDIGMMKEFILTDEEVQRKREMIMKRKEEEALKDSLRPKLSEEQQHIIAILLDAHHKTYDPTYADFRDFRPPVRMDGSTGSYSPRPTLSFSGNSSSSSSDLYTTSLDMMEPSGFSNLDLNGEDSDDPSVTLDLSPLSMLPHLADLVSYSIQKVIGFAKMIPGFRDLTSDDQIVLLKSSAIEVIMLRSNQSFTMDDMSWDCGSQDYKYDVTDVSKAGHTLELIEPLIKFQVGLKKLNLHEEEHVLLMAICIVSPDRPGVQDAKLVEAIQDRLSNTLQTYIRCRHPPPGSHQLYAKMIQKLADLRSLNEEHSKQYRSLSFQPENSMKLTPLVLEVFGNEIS
Procedure: Full-length recombinant rat receptor was expressed in E. coli BL21(DE3) Codon Plus RIL cells and purified to homogeneity using two different column chromatography systems. The first system was a nickel affinity resin that utilizes the C-terminal histidine tag on this protein. The protein that was eluted from this resin was further purified using ion exchange chromatography (S-Sepharose Fast Flow). Aliquots of the purified protein were quick frozen in liquid nitrogen and stored at −80° C. until use. For use in binding assays, the protein was diluted in TEDK50 (50 mM Tris, 1.5 mM EDTA, pH 7.4, 5 mM DTT, 150 mM KCl) with 0.1% Chaps detergent. The receptor protein and ligand concentration was optimized such that no more than 20% of the added radiolabeled ligand was bound to the receptor.
Unlabeled ligands were dissolved in ethanol and the concentrations determined using UV spectrophotometry (1,25(OH)2D3: molar extinction coefficient=18,200 and λmax=265 nm; Analogs: molar extinction coefficient=42,000 and λmax=252 nm). Radiolabeled ligand (^3H-1,25(OH)2D3, ˜159 Ci/mmol) was added in ethanol at a final concentration of 1 nM.
Radiolabeled and unlabeled ligands were added to 100 mcl of the diluted protein at a final ethanol concentration of ≦10%, mixed and incubated overnight on ice to reach binding equilibrium. The following day, 100 mcl of hydroxylapatite slurry (50%) was added to each tube and mixed at 10-minute intervals for 30 minutes. The hydroxylapaptite was collected by centrifugation and then washed three times with Tris-EDTA buffer (50 mM Tris, 1.5 mM EDTA, pH 7.4) containing 0.5% Titron X-100. After the final wash, the pellets were transferred to scintillation vials containing 4 mL of Biosafe II scintillation cocktail, mixed and placed in a scintillation counter. Total binding was determined from the tubes containing only radiolabeled ligand.

HL-60 cells = assay: HL-60 differentiation (nitro blue tetrazolium reduction); format: cell-based, Human; conditions: FIG. 3
Procedure: The study drugs were dissolved in ethanol and the concentrations determined using UV spectrophotometry. Serial dilutions were prepared so that a range of drug concentrations could be tested without changing the final concentration of ethanol (≦0.2%) present in the cell cultures.
Human promyelocytic leukemia (HL60) cells were grown in RPMI-1640 medium containing 10% fetal bovine serum. The cells were incubated at 37° C. in the presence of 5% CO2.
HL60 cells were plated at 1.2×10^5 cells/mL. Eighteen hours after plating, cells in duplicate were treated with drug. Four days later, the cells were harvested and a nitro blue tetrazolium reduction assay was performed (Collins et al., 1979; J. Exp. Med. 149:969-974). The percentage of differentiated cells was determined by counting a total of 200 cells and recording the number that contained intracellular black-blue formazan deposits. Verification of differentiation to monocytic cells was determined by measuring phagocytic activity (data not shown).

[3] = test system: 24-hydroxylase (24Ohase) gene promoter; assay: In vitro transcription assay (luciferase reporter in ROS 17/2.8 cells); format: cell-based; conditions: 24Ohase promoter-luciferase, FIG. 4
Procedure: Transcription activity was measured in ROS 17/2.8 (bone) cells that were stably transfected with a 24-hydroxylase (24Ohase) gene promoter upstream of a luciferase reporter gene (Arbour et al., 1998). Cells were given a range of doses. Sixteen hours after dosing the cells were harvested and luciferase activities were measured using a luminometer. RLU=relative luciferase units.

[4] = Bone calcium mobilization (serum calcium); format: in vivo, Sprague-Dawley rats; conditions: rats, four ip doses, even at 7,020 pmol/day; FIGS. 5 and 7
Procedure: (§1) Male, weanling Sprague-Dawley rats were placed on Diet 11 (Suda et al. J. Nutr. 100:1049, 1970) (0.47% Ca) diet+vitamins AEK for one week followed by Diet 11 (0.02% Ca)+AEK for 3 weeks. The rats were then switched to a diet containing 0.47% Ca for one week followed by two weeks on the diet containing 0.02% Ca. Dose administration began during the last week on 0.02% calcium diet. Four consecutive ip doses were given approximately 24 hours apart. Twenty-four hours after the last dose, blood was collected from the severed neck and the concentration of serum calcium determined as a measure of bone calcium mobilization. The first 10 cm of the intestine was also collected for intestinal calcium transport analysis using the everted gut sac method.

[5] = Intestinal calcium transport (everted gut sac method); format: in vivo, Sprague-Dawley rats; conditions: rats, four ip doses; FIGS. 6 and 8
Procedure: as §1

Compound	binding activity to the vitamin D receptor (vitamin D receptor)	cell differentiation activity (cell differentiation)	calcemic / calcium mobilizing activity [1]	activity in binding to the vitamin D receptor compared with 1α,25-dihydroxyvitamin D3 [2]	activity in inducing differentiation of HL-60 cells compared with 1α,25-dihydroxyvitamin D3 (HL-60 cells)	activity in causing transcription compared with 1α,25-dihydroxyvitamin D3 [3]	calcemic activity measured by bone calcium mobilization [4]	intestinal calcium transport [5]
1α-hydroxy-2-methylene-19-nor-(20S)-homopregnacalciferol	relatively high binding activity	relatively high cell differentiation activity	little if any calcemic activity	–	–	–	–	–
1α-hydroxy-2-methylene-19-nor-bishomopregnacalciferol	relatively high binding activity	relatively high cell differentiation activity	little if any calcemic activity	–	–	–	–	–
C[C@H](CCCC(C)(C)O)[C@H]1CC[C@H]2/C(=C/C=C3C[C@@H](O)C[C@H](O)C3)CCC[C@]12C [1α,25-dihydroxy-19-nor-vitamin D3]	–	high potency	very low calcium mobilizing activity	–	–	–	–	–
C=C1[C@H](O)CC(=C/C=C2\CCC[C@]3(C)[C@@H](CC)CC[C@@H]23)C[C@H]1O [1α-Hydroxy-2-methylene-19-nor-pregnacalciferol]	relatively high binding activity	relatively high cell differentiation activity	little if any calcemic activity	–	–	–	–	–
C=C1[C@H](O)CC(=C/C=C2\CCC[C@]3(C)[C@@H]([C@@H](C)CCCCO)CC[C@@H]23)C[C@H]1O [BM, 2-methylene-19,26,27-trinor-(20S)-1α,25-dihydroxyvitamin D3]	–	–	–	slightly less active	only slightly less active; also recorded: about the same activity	slightly less activity	no calcemic activity	do not elevate intestinal calcium transport
CC(CCCCO)C1CCC2C(=CC=C3CC(O)C(C)C(O)C3)CCCC21C [P10, 2α-methyl-19,26,27-trinor-(20S)-1α,25-dihydroxyvitamin D3]	–	–	–	slightly more active	less activity	slightly less activity	no calcemic activity	do not elevate intestinal calcium transport
CC1[C@H](O)CC(=C/C=C2\CCC[C@]3(C)[C@@H]([C@@H](C)CCCCO)CC[C@@H]23)C[C@H]1O (stereo partly drawn) [T-74, 2β-methyl-19,26,27-trinor-(20S)-1α,25-dihydroxyvitamin D3]	–	–	–	significantly less active	significantly less activity	significantly less activity	no calcemic activity	do not elevate intestinal calcium transport
